Legend:
lipase AY 30 [1] = assay: Effect of the solvent on lipase AY 30 catalyzed deacylation of SOP; type: biochemical, Candida cylindracea; conditions: for ShexaP (4.2 min) / SheptaP's (8.9 min) / SheptaP's (9.4 min) / SheptaP's ([…]): lipase AY 30, 24 hrs; for ShexaP (4.2 min): HPLC peak 4.2 min; for SheptaP's (8.9 min): HPLC peak 8.9 min; for SheptaP's (9.4 min): HPLC peak 9.4 min; for SheptaP's ([…]): HPLC peak […]; for SOA: lipase AY 30, solvent as labelled, 200 mM butanol, 24 hrs, peak 21.4 min; on SheptaP's ([…]): HPLC peak 8.2 min
Description: Identical SOP deacylations were performed with lipase AY 30 or protease type XXIII in numerous anhydrous organic solvents, as shown in Tables 12 and 13.
(§1) Solvent screening for SOP deacylation. A scintillation vial was charged successively with 100 mg of lipase AY 30 or protease type XXIII as described and 1.0 ml of 20 mM sucrose octapropionate (SOP) and 200mM butanol dissolved in an organic solvent. Following a 5 sec sonication, the vial was incubated in a controlled-temperature shaker at 45° C. and 300 RPM for 24 hrs. A 200 μl aliquot of the reaction mixture was withdrawn and centrifuged. The supernatant was collected and evaporated under a stream of N2. The residue was reconstituted in 200 μl of acetonitrile and 10 μl of this solution was analyzed by HPLC.

[2] = n-octanol/water; from Laane et al.; cited from earlier work
lipase AY 30 [3] = assay: Effect of the solvent on lipase AY 30 SOA deacetylation; type: biochemical, Candida cylindracea; conditions: lipase AY 30, solvent as labelled, 24 hrs
Description: (§2) Identical enzyme catalyzed SOA deacetylations were run in numerous anhydrous solvents. After 24 hrs incubation an aliquot was analyzed by HPLC.
as §1, with “Enzyme and Solvent” for “Solvent”, “Screening” for “screening”, “SOA Deacetylation.” for “SOP deacylation.”, “powdered enzyme as received” for “lipase AY 30”, “prepared” for “protease type XXIII”, “octaacetate (SOA)” for “octapropionate (SOP) and 200mM butanol”

[4] = test system: alcalase deposited on Hyflo Super Cell; assay: Solvent effect on alcalase deposited on Hyflo Super Cell catalyzed deacetylation of SOA; type: biochemical, Bacillus licheniformis; conditions: immobilized alcalase, 4 hour incubation; for SheptaA: total of 1'-OH and 6'-OH heptaacetates
Description: (§3) Alcalase and lipase AY 30 were deposited on Hyflo Super Cell and used as catalysts for SOA deacetylation reactions in several anhydrous solvents.
(§4) Enzyme immobilization. The pH of a solution of 900 mg of buffered alcalase in 18 ml of water was adjusted to 9.0 with dilute NaOH. Hyflo super cell (6 g) was added and the slurry thoroughly mixed. […] Lipase AY 30 was immobilized in the same manner except that the protein solution was adjusted to pH 7.0 with sodium phosphate.
Enzyme and Solvent Screening for SOA Deacetylation. A scintillation vial was charged successively with 100 mg of powdered enzyme as received or prepared as described and 1.0 ml of 20 mM sucrose octaacetate (SOA) dissolved in an organic solvent. […] A 200 μl aliquot of the reaction mixture was withdrawn and centrifuged. The supernatant was collected and evaporated under a stream of N2. The residue was reconstituted in 200 μl of acetonitrile and 10 μl of this solution was analyzed by HPLC.

alcalase = molecular target: T1, alcalase (Bacillus licheniformis, UniProt P00780); assay: Solvent effect on alcalase catalyzed deacetylation of SOA; type: biochemical; conditions: 24 hrs; for SheptaA: total of 1'-OH and 6'-OH heptaacetates; for SOA / ShexaA: solvent as labelled
T1 construct: purchased Novo Nordisk (gift)
T1 sequence (P00780 106-379): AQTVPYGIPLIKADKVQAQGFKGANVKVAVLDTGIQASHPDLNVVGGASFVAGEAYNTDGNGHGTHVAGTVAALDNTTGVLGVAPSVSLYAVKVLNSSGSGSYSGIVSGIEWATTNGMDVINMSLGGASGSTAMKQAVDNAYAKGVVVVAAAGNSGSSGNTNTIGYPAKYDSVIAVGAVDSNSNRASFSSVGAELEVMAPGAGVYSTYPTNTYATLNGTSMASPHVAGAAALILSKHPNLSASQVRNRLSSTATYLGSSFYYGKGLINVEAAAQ
Description: as §2
Enzyme Precipitation. Alcalase was prepared by adding 37.5 ml cold acetone (-20° C.) to 25 ml of alcalase solution as supplied by Novo. The aqueous acetone was decanted and the residue dissolved in 25 ml of pH 9.0 glycine--NaOH buffer. The pH of this solution was adjusted to 9.0 with a few drops of dilute NaOH solution. Cold acetone (37.5 ml at -20° C.) was added to the buffered alcalase solution and the precipitate collected by filtration on a medium porosity glass funnel and dried overnight at 2 millitorr. The resulting pellet was ground to a fine powder and stored at 4° C. over saturated aqueous potassium carbonate (RH: 43%) for 24 hrs.
(§5) Enzyme and Solvent Screening for SOA Deacetylation. A scintillation vial was charged successively with 100 mg of powdered enzyme as received or prepared as described and 1.0 ml of 20 mM sucrose octaacetate (SOA) dissolved in an organic solvent. Following a 5 sec sonication, the vial was incubated in a controlled-temperature shaker at 45° C. and 300 RPM for 24 hrs. A 200 μl aliquot of the reaction mixture was withdrawn and centrifuged. The supernatant was collected and evaporated under a stream of N2. The residue was reconstituted in 200 μl of acetonitrile and 10 μl of this solution was analyzed by HPLC.

[5] = test system: lipase AY 30 deposited on Hyflo Super Cell; assay: Solvent effect on lipase AY 30 deposited on Hyflo Super Cell catalyzed deacetylation of SOA; type: biochemical, Candida cylindracea; conditions: immobilized lipase AY 30, 24 hrs
Description: as §3, §4, §5

proleather = assay: Solvent effect on proleather catalyzed deacetylation of SOA; type: biochemical, Bacillus subtilis; conditions: 24 hrs; for SheptaA: total of 1'-OH and 6'-OH heptaacetates; for SOA / ShexaA: solvent as labelled
Description: as §2
(§6) The pH of commercial powdered enzymes was adjusted in the following way: The enzyme (3 g) was dissolved in 25 ml of an appropriate buffer and the pH adjusted with dilute NaOH or citric/phosphoric acid solution. Cold acetone (37.5 ml at -20° C.) was added and the precipitate collected on a medium porosity glass funnel and dried overnight at 2 millitorr. The protein pellet was ground to a fine powder and equilibrated at 4° C. over saturated aqueous potassium carbonate (RH: 43%) for 24 hrs.
as §5

lipase AP 12 = assay: Solvent effect on lipase AP 12 catalyzed deacetylation of SOA; type: biochemical, Aspergillus niger; conditions: lipase AP 12, solvent as labelled, 24 hrs
Description: as §2, §6, §5

CCCCC(=O)CC [3-heptanone]
ShexaP (4.2 min) (lipase AY 30 [1]): 0% | SheptaP's (8.9 min) (lipase AY 30 [1]): 0.8% | SheptaP's (9.4 min) (lipase AY 30 [1]): 2.9% | SheptaP's ([…]) (lipase AY 30 [1]): 3.3% | SOA (lipase AY 30 [1]): 93.0% | log P [2]: 1.8 | SOA (lipase AY 30 [3]): 85.1% | SheptaA (lipase AY 30 [3]): 14.9%

C1CCOC1 [THF, tetrahydrofuran]
ShexaP (4.2 min) (lipase AY 30 [1]): 0.3% | SheptaP's (8.9 min) (lipase AY 30 [1]): 0% | SheptaP's (9.4 min) (lipase AY 30 [1]): 0.1% | SheptaP's ([…]) (lipase AY 30 [1]): 1.6% | SOA (lipase AY 30 [1]): 98.0% | SOA [4]: 97.3% | ShexaA [4]: 0% | SheptaA [4]: 2.7% | SheptaA (alcalase): 2.0% | SOA (alcalase): 98.0% | ShexaA (alcalase): 0% | SOA [5]: 98. % | SheptaA [5]: 2.0% | SOA (lipase AY 30 [3]): 98.7% | SheptaA (lipase AY 30 [3]): 1.3% | ShexaA (lipase AY 30 [3]): 0% | SheptaA (proleather): 2.6% | SOA (proleather): 97.4% | ShexaA (proleather): 0% | SOA (lipase AP 12): 98.4% | SheptaA (lipase AP 12): 1.6% | ShexaA (lipase AP 12): 0%

c1ccccc1 [benzene]
SOA [4]: 97.9% | ShexaA [4]: 0% | SheptaA [4]: 2.1% | SheptaA (alcalase): 6.7% | SOA (alcalase): 93.3% | ShexaA (alcalase): 0% | SOA [5]: 97.9% | SheptaA [5]: 2.1% | SOA (lipase AY 30 [3]): 97.9% | SheptaA (lipase AY 30 [3]): 1.7% | ShexaA (lipase AY 30 [3]): 0.4% | SheptaA (proleather): 13.9% | SOA (proleather): 84.8% | ShexaA (proleather): 1.4% | SOA (lipase AP 12): 96.6% | SheptaA (lipase AP 12): 3.4% | ShexaA (lipase AP 12): 0%

CCCCOCC [butyl ethyl ether]
log P [2]: 1.9 | SOA [4]: 97.8% | ShexaA [4]: 0% | SheptaA [4]: 2.2% | SheptaA (alcalase): 16.9% | SOA (alcalase): 81.4% | ShexaA (alcalase): 1.7% | SOA [5]: 96.0% | SheptaA [5]: 4.0% | SOA (lipase AY 30 [3]): 73.9% | SheptaA (lipase AY 30 [3]): 21.4% | ShexaA (lipase AY 30 [3]): 4.7% | SOA (lipase AP 12): 81.6% | SheptaA (lipase AP 12): 16.3% | ShexaA (lipase AP 12): 2.1%

ClC(Cl)Cl [chloroform]
SOA (lipase AY 30 [3]): 86.7% | SheptaA (lipase AY 30 [3]): 11.6% | ShexaA (lipase AY 30 [3]): 1.7%

C1CCCCC1 [cyclohexane]
ShexaP (4.2 min) (lipase AY 30 [1]): 2.8% | SheptaP's (8.9 min) (lipase AY 30 [1]): 0.4% | SheptaP's (9.4 min) (lipase AY 30 [1]): 5.2% | SheptaP's ([…]) (lipase AY 30 [1]): 5.6% | SOA (lipase AY 30 [1]): 86%

O=C1CCCCC1 [cyclohexanone]
ShexaP (4.2 min) (lipase AY 30 [1]): 0% | SheptaP's (8.9 min) (lipase AY 30 [1]): 0% | SheptaP's (9.4 min) (lipase AY 30 [1]): 0.3% | SheptaP's ([…]) (lipase AY 30 [1]): 0.9% | SOA (lipase AY 30 [1]): 98.8% | log P [2]: 0.96 | SOA (lipase AY 30 [3]): 97.5% | SheptaA (lipase AY 30 [3]): 2.5% | ShexaA (lipase AY 30 [3]): 0%

CCCCCOCCCCC [dipentyl ether]
log P [2]: 3.9

CCCCCCC [heptane]
ShexaP (4.2 min) (lipase AY 30 [1]): 6.6% | SheptaP's (8.9 min) (lipase AY 30 [1]): 0.5% | SheptaP's (9.4 min) (lipase AY 30 [1]): 4.4% | SheptaP's ([…]) (lipase AY 30 [1]): 8.9% | SOA (lipase AY 30 [1]): 79.6% | log P [2]: 4.0
